# Measurements from ChEMBL document CHEMBL1201862, “PubChem BioAssay data set” (2004).
# Active and inactive are the calls of the source.
# Legend:
# [1] = target: T1, Zinc finger protein mex-5 (Caenorhabditis elegans, UniProt Q9XUB2); assay: potency of MEX-5 RNA-binding blockers – biochemical, C. elegans, fluorescence polarization, dose response (AID 1960)
# T1 sequence (Q9XUB2 whole entry): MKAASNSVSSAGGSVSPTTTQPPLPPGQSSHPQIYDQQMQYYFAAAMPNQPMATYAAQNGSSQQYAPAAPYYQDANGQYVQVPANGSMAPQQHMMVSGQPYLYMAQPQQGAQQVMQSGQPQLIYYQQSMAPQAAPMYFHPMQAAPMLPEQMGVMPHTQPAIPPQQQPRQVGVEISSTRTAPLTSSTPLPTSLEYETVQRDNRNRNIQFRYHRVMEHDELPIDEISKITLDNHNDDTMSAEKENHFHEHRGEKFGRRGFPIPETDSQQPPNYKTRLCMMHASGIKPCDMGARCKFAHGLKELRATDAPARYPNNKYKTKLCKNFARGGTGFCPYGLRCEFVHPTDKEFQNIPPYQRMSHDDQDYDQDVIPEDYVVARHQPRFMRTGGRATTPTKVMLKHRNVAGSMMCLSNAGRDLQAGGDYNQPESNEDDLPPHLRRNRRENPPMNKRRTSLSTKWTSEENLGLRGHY
# [2] = target: T2, RNA-binding protein pos-1 (Caenorhabditis elegans, UniProt G5EF15); assay: disruptors of C. elegans POS-1 RNA interaction – biochemical, fluorescence polarization, dose response (AID 1964);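 note: purified POS-1 fused to maltose binding protein made in E. coli; potency of compounds blocking POS-1 binding to fluorescent RNA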
# T2 sequence (G5EF15 whole entry): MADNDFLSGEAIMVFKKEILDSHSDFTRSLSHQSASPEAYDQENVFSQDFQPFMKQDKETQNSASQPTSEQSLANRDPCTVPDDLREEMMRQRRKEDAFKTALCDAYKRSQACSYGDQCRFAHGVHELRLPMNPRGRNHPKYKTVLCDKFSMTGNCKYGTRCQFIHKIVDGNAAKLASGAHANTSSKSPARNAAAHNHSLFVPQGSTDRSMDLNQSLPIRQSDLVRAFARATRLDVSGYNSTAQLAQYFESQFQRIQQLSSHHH
# Large T antigen = Large T antigen (Simian virus 40, UniProt P03070); type: functional, Betapolyomavirus macacae;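 note: Confirmatory-stage PubChem screen for compounds that inhibit SV40 T antigen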
# Large T antigen, sequence (P03070 whole entry, the tested form may be a part): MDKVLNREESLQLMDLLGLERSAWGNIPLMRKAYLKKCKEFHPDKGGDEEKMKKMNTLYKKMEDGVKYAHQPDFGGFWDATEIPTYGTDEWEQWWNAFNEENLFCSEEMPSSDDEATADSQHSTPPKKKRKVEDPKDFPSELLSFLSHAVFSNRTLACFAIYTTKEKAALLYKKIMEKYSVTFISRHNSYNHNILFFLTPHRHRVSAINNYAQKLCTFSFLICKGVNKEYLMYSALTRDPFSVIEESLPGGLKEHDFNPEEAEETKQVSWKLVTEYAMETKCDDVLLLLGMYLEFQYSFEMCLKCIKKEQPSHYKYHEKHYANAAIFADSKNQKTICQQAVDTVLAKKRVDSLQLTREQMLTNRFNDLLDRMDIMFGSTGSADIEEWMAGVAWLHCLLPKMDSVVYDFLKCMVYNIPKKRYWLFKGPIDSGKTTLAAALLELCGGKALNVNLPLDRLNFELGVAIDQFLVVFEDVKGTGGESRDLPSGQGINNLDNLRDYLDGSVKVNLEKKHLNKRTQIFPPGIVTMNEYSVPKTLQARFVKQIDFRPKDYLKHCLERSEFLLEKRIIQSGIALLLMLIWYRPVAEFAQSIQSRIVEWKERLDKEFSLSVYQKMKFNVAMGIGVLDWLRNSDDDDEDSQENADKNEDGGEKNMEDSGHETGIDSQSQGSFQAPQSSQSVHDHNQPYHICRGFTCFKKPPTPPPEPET
# [3] = target: T3, Carboxy-terminal domain RNA polymerase II polypeptide A small phosphatase 1 (Homo sapiens, UniProt Q9GZU7); assay: CTDSP1 inhibitors, concentration-response, biochemical, absorbance readout, ultra-high-throughput screen actives (AID 540297); type: functional
# T3 sequence (Q9GZU7 whole entry): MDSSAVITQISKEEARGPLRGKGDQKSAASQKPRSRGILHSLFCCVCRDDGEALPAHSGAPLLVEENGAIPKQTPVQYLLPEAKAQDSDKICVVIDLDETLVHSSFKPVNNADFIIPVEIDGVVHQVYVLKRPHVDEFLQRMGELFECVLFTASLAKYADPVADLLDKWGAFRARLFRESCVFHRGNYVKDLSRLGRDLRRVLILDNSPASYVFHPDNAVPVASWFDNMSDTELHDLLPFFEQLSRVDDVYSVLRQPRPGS
# [4] = target: T4, Calpain-2 catalytic subunit (Sus scrofa, UniProt P43367); assay: m-calpain protease blockers, concentration series – biochemical, fluorogenic peptide substrate, dose response (AID 1420); type: functional
# T4 sequence (P43367 whole entry): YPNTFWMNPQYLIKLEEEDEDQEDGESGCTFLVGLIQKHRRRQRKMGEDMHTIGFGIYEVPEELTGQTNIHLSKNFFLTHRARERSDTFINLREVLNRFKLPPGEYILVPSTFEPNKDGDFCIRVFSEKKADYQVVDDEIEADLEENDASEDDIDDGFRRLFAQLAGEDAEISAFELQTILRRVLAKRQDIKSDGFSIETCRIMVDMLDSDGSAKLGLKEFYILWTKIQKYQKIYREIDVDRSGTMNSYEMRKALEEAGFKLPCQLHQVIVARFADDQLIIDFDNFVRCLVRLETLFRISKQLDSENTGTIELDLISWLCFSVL
# [5] = blockers of HIV-1 envelope-mediated cell-cell fusion – cherry-pick, dose response (AID 652057); type: functional, cell-based
# [6] = target: FAD-linked sulfhydryl oxidase ALR (Homo sapiens, UniProt P55789); assay: ALR-catalysed DTT oxidation blockers – biochemical, H2O2 detection, luminescence, cherry-pick, dose response (AID 493248)
# FAD-linked sulfhydryl oxidase ALR, sequence (P55789 whole entry): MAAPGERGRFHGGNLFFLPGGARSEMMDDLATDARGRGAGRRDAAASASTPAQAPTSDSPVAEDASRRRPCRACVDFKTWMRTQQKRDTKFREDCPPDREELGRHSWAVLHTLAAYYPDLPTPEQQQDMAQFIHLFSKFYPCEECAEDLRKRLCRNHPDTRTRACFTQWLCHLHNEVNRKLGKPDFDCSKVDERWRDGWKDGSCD
# [7] = target: T5, Rac GTPase-activating protein 1 (Homo sapiens, UniProt Q9H0H5); assay: blockers of MgcRacGAP-driven Rac1 GTP hydrolysis – biochemical, ADP Hunter fluorescence, primary and confirmatory, confirmation (AID 624330); type: functional
# T5 sequence (Q9H0H5 whole entry): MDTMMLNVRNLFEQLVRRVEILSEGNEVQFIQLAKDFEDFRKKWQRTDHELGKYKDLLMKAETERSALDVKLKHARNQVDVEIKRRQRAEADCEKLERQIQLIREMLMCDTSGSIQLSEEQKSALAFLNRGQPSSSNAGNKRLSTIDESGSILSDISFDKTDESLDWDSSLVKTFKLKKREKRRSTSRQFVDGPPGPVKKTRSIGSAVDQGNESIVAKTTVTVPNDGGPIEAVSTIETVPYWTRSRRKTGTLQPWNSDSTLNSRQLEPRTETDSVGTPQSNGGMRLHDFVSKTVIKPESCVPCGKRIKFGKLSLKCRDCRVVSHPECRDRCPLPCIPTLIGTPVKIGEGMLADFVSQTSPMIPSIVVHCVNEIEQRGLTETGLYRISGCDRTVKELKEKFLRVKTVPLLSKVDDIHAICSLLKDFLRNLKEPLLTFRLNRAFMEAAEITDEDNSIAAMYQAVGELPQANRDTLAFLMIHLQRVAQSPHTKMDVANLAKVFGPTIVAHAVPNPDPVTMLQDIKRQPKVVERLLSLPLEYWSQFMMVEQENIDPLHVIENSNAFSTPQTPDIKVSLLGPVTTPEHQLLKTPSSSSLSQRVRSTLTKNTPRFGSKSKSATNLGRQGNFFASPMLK
# Protein skinhead-1 = target: T6, Protein skinhead-1 (Caenorhabditis elegans, UniProt P34707); type: functional
# T6 sequence (P34707 whole entry): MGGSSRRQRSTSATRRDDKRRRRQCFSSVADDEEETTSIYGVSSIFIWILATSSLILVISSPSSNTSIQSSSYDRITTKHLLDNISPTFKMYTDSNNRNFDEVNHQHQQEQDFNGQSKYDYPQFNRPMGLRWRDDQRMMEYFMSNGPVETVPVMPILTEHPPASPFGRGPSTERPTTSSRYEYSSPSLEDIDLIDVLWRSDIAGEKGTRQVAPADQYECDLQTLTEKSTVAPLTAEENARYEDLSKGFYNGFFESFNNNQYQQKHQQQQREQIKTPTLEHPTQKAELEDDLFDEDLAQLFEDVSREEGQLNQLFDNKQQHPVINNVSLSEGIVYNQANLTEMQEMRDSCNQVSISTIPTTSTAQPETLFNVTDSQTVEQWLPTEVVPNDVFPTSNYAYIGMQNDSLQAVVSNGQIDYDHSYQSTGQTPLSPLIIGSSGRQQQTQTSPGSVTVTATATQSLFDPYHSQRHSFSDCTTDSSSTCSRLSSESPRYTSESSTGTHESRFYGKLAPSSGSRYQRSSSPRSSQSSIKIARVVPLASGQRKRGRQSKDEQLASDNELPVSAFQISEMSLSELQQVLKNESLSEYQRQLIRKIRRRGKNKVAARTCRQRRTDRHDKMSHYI
# Cytochrome P450 2C9 = Cytochrome P450 2C9 (Homo sapiens, UniProt P11712)
# Cytochrome P450 2C9, sequence (P11712 whole entry, the tested form may be a part): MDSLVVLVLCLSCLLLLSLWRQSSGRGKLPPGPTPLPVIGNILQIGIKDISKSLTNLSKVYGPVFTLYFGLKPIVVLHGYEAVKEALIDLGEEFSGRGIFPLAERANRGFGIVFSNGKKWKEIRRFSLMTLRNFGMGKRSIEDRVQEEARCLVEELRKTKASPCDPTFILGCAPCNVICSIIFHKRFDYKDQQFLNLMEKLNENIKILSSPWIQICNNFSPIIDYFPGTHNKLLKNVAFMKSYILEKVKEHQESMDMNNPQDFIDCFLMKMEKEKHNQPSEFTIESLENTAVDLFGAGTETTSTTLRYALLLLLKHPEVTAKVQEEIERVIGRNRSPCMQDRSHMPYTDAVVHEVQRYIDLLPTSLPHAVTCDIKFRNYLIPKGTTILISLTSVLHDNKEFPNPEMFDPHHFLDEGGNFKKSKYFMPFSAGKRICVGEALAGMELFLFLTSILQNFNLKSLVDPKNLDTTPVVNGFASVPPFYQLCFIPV
# [8] = HIV-1 AD8 envelope cell-cell fusion blockers – cherry-pick, dose response (AID 652062); type: functional, cell-based;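 note: luciferase signal from cell-cell fusion driven by HIV-1 clade B AD8 Env; potency is for inhibitors of fusion seen as a drop in luminescence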
# [9] = blockers of HIV-1 ZM109 envelope-driven cell-cell fusion – HeLa effector, CEM target cells, luciferase, cherry-pick, dose response (AID 652058); type: functional, cell-based;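 note: luciferase signal from HIV-1 Env mediated cell-cell fusion of effector and target cells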
# [10] = P. falciparum Dd2 growth inhibitors, dose response, SYBR Green, cherry-picked samples (AID 1159567); type: functional, cell-based
structure (smiles),measurement,setting,value
Cc1ccc2c(c1)N/C(=C\C(=O)CC(C)C)C(=O)O2,EC50,[1],> 300 µM (not active)
same,EC50,[2],> 300 µM (not active)
same,IC50,Large T antigen,7.15 µM (active)
CC1(C(O)(C#CC[N+]2(C)CCCCC2)c2ccccc2)CCCC1 (configuration not stated),IC50,[3],9.1 µM (active)
CC(C)Cn1c(S)nnc1-c1csc2c1CCCC2,IC50,[4],13.5 µM (not active)
CSc1cccc(NC(=O)CSc2ccc(Cl)cc2)c1,IC50,[4],8.93 µM (not active)
O=C(Nc1ccc(Cl)cc1)C1CCCN(C2=NS(=O)(=O)c3ccccc32)C1 (configuration not stated),AC50,[5],25.9 µM (active)
O=[N+]([O-])c1ccc(CSC2=NCCS2)cc1,AC50,[6],5.31 µM (active)
CCN(CC)c1ccc(N/C=C2\C(=O)NC(=O)N(c3cc(OC)ccc3OC)C2=O)cc1,EC50,[1],> 300 µM (not active)
same,EC50,[2],> 300 µM (not active)
same,IC50,Large T antigen,19.8 µM (active)
CCOC(=O)/C=C1\CC(C(=O)OCC)Oc2c(OC)cccc21 (configuration not stated),IC50,[3],16.7 µM (active)
O=C(OCc1ccccc1)Oc1cncc(C(=O)O)c1,AC50,[6],0.072 µM (active)
C=CCNC(=O)c1ccc(Cn2c(=S)[nH]c3cc4c(cc3c2=O)OCO4)cc1,IC50,[3],8.27 µM (active)
CCOC(=O)CCNC(C)C1COc2ccccc2O1 (configuration not stated),IC50,[7],178 µM (active)
Cc1ccc(NC(=O)CSc2ccccc2NC(=O)c2ccccc2Cl)cc1Cl,IC50,[3],7.38 µM (active)
Cc1ccc(SCCNC(=O)CN2C(=O)c3ccccc3S2(=O)=O)cc1,IC50,Protein skinhead-1,> 100 µM (inactive)
COc1cccc2cc(C(=O)Oc3ccc(NC(C)=O)cc3)c(=O)oc12,IC50,[7],34.9 µM (active)
COc1ccc(OCCN(C)C(=O)c2cccc(S(=O)(=O)N(C)c3ccccc3)c2)cc1,IC50,Protein skinhead-1,> 100 µM (inactive)
COCCN(C(=O)COC(=O)Cc1coc2cc3c(cc12)CCC3)c1c(N)n(Cc2ccccc2)c(=O)[nH]c1=O,IC50,[3],6.23 µM (active)
Fc1ccc(OCc2nc3ccccc3s2)cc1,IC50,Protein skinhead-1,> 100 µM (inactive)
Fc1ccc(CSc2nnc(-c3ccco3)o2)cc1,IC50,Protein skinhead-1,30.1 µM (active)
N#Cc1c(-c2ccco2)cc(-c2ccccc2)[nH]c1=O,IC50,Large T antigen,68.7 µM (active)
CN(C)S(=O)(=O)NC(c1ccccc1)c1ccccc1,IC50,Protein skinhead-1,> 100 µM (inactive)
O=C(CSc1nnc(CNc2ccc(F)cc2)n1Cc1ccco1)NC1CC1,IC50,Protein skinhead-1,> 100 µM (inactive)
CC(=O)c1ccc(S(=O)(=O)N2CCNC(=O)C2)cc1,AC50,[6],3.33 µM (active)
COC(=O)c1ccc(NC(=O)c2cccc(Cl)c2)o1,AC50,[6],20.9 µM (active)
O=C(NCCCN1CCc2ccccc2C1)Nc1ccc(Cl)cc1,AC50,Cytochrome P450 2C9,14.1 µM (inconclusive)
same,AC50,[8],39.9 µM (active)
same,AC50,[5],3.52 µM (active)
COC(=O)c1cc(-c2cccc(OC)c2)[nH]n1,IC50,Protein skinhead-1,> 100 µM (inactive)
Cn1c(/C(C#N)=C(\O)c2ccc([N+](=O)[O-])s2)nc2ccccc21,IC50,Protein skinhead-1,> 100 µM (inactive)
C[C@H](CO)N1C[C@H](C)[C@H](CN(C)C(=O)Nc2ccc(F)cc2)OCc2ccccc2-c2c(n(C)c3ccccc23)C1=O,AC50,[9],< 0.26 µM (active)
same,AC50,[8],< 0.26 µM (active)
same,AC50,[5],< 0.26 µM (active)
C#Cc1ccc([C@@H]2C=C(C(=O)O)O[C@H](OCC)[C@H]2CCCO)cc1,IC50,[3],4.59 µM (active)
Cc1ccc(S(=O)(=O)N/N=C/c2ccc(O)c(O)c2)cc1[N+](=O)[O-],AC50,[6],1.06 µM (active)
Cc1ccc(-c2ccc3c(c2)O[C@@H](CN(C)Cc2cccnc2)[C@H](C)CN([C@H](C)CO)S3(=O)=O)cc1,AC50,[5],33.3 µM (active)
CCN(CC)c1ccc(/C=N/NC(=O)CNC(=O)c2ccccn2)cc1,AC50,[6],0.91 µM (active)
Oc1ccccc1/C=N/n1c(S)nnc1-c1ccccc1,IC50,[7],82.2 µM (active)
O=C(O)c1cccc(N/N=C/c2cc(Br)cc(Br)c2O)c1,AC50,[6],1.99 µM (active)
COc1cc(/C=N/NC(=O)CCc2c(C)n[nH]c2C)ccc1O,IC50,Large T antigen,12.9 µM (active)
CC(C)(C)[S@@+]([O-])N1Cc2cc(C(=O)N3CCc4ccccc4C3)nc(-c3cccc(-c4ccncc4)c3)c2[C@H]1CCO,AC50,[10],5.87 µM (active)
COc1ccc2c3c(n(C)c2c1)[C@H](CO)N(Cc1ccccc1OC)CC31CN(CC2CCOCC2)C1,AC50,[10],4.81 µM (active)
COc1ccc2c3c(n(C)c2c1)[C@@H](CO)N(C(=O)Nc1ccccc1F)CC31CCN(C)CC1,AC50,[10],5.95 µM (active)
COc1ccc2c3c([nH]c2c1)[C@@H](CO)N(Cc1cc(F)ccc1F)CC31CN(C(=O)C2CCC2)C1,AC50,[10],6.17 µM (active)
CC(C)c1cn([C@H]2C[C@@H]3O[C@H](CO)CC[C@@H]3O[C@@H]2CCc2ccc(C#CC3(O)CCCC3)cc2)nn1,AC50,[10],6.12 µM (active)
